Each molecule was assayed on R. oryzae UCP1295 (assay: Screening of the Pandemic Response Box library at 5 µM). Details: 48 h, Table S1, mean of the four values.
Type: cell-based, Rhizopus oryzae
Summary of the method: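 Growth inhibition was read at 600 nm after conidia (2 × 10^5/mL) grew 48 h at 37 °C, 5% CO2, with 5 μM compound in glucose-supplemented (2%), MOPS-buffered RPMI (pH 7.2). Controls were posaconazole at 5 μM and 1% DMSO. The selection cut-off was at least 60% inhibition.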
For `CCCCN1C[C@H](O)[C@@H](O)[C@H](O)[C@H]1CO` [MMV1782098], the “% of growth inhibition, Mean” value was -8.6%.
In the case of `COc1cc(C(C)(C)CCCC(C)C)cc(OC)c1OC` [MMV1782102], the “% of growth inhibition, Mean” value is reported as -11.2%.
In the case of `COCCn1cnc2c(O)nc(Nc3ccccc3)nc21` [MMV1782103], the “% of growth inhibition, Mean” value is reported as -15.7%.
`NC(=O)c1nccn([C@@H]2O[C@H](CO)[C@@H](O)[C@H]2O)c1=O` [MMV1782104] was tested, and the “% of growth inhibition, Mean” value was -4.9%.
`O=c1oc2ccc(Br)cc2cc1CSc1ncc[nH]1` [MMV1782105] was tested, and the “% of growth inhibition, Mean” value was -13.4%.
For `CCc1cc(CCC(=O)Nc2ccccc2O)c(=O)[nH]c1C` [MMV1782106], the “% of growth inhibition, Mean” value was -2.0%.
`O=c1[nH]c(=O)n(Cc2cccc(Oc3ccccc3)c2)cc1Nc1ccccc1` [MMV1782107] was tested, and the “% of growth inhibition, Mean” value was -3.3%.
For `CCCCc1ccc(S(=O)(=O)Nc2cc(C)on2)cc1` [MMV1782108], the “% of growth inhibition, Mean” value was -13.7%.
For `O=C(N[C@H](Cc1cccc2ccccc12)C(=O)NCCc1c[nH]cn1)C1Cc2ccccc2C1` [MMV1782109], the “% of growth inhibition, Mean” value was -14.0%.
With `O=C(CCc1ccc2c(c1)OCO2)NCc1ccc(-c2ccccc2F)cc1` [MMV1782110] the “% of growth inhibition, Mean” value was -2.8%.
For `CC(C)C(=O)N[C@H]1[C@H]([C@H](O)[C@H](O)CO)OC(C(=O)O)=C[C@@H]1N=[N+]=[N-]` [MMV1782111], the “% of growth inhibition, Mean” value was -12.9%.
`CCOC(=O)/C=C/[C@H](C[C@@H]1CCNC1=O)NC(=O)[C@H](CC)n1cccc(NC(=O)c2cc(C)on2)c1=O` [MMV1782112] was tested, and the “% of growth inhibition, Mean” value was -11.8%.
With `CCCC1(C2CC2)c2cc(Cl)ccc2NC(=O)N1C` (stereo not shown) [MMV1782113] the “% of growth inhibition, Mean” value was -5.2%.
With `O=C(NN1C(=O)[C@@H]2C3C=CC([C@H]4C[C@@H]34)[C@@H]2C1=O)c1ccc(C(F)(F)F)cc1` [MMV1782114] the “% of growth inhibition, Mean” value was -5.7%.
In the case of `COc1ccc2sc3c(c2c1)NC(C)CNC3=O` (stereo not shown) [MMV1782115], the “% of growth inhibition, Mean” value is reported as -2.6%.
With `O=C(Nc1nnc(-c2ccc(Cl)cc2)o1)c1ccc(F)cc1` [MMV1782140] the “% of growth inhibition, Mean” value was -4.1%.
`CN1C(=O)C(c2ccccc2)C(=O)N(c2ccccc2)c2cc(C(F)(F)F)ccc21` (stereo not shown) [MMV1782208] was tested, and the “% of growth inhibition, Mean” value was -7.5%.
For `COc1ccc(C(C)(C)C)cc1NC(=O)C(=O)c1ccc(OCCN2CCOCC2)c2ccccc12` [MMV1782209], the “% of growth inhibition, Mean” value was -5.8%.
For `Nc1nc2c(ncn2/C=C2/CC2(CO)CO)c(=O)[nH]1` [MMV1782210], the “% of growth inhibition, Mean” value was -16.4%.
`C[C@@H](NC(=O)c1cccc(-c2cnc(-c3cc4ccccc4cn3)[nH]2)c1)c1ccc(F)cc1` [MMV1782211] was tested, and the “% of growth inhibition, Mean” value was 32.8%.
With `CC(C)(C)c1ccc(C(=O)NC(=O)N2CCCc3ccccc32)cc1` [MMV1782212] the “% of growth inhibition, Mean” value was -4.9%.
`O=C(CSc1nnc(Br)n1-c1ccc(C2CC2)c2ccccc12)Nc1ccc(C(=O)O)cc1Cl` [MMV1782213] was tested, and the “% of growth inhibition, Mean” value was -4.3%.
With `C=CCN(C(=O)OCc1ccc([N+](=O)[O-])cc1)C1CCN(CC[C@](C)(CN(C)S(=O)(=O)c2ccccc2)c2ccccc2)CC1` [MMV1782214] the “% of growth inhibition, Mean” value was 14.4%.
In the case of `O=P(O)(O)C(CCCc1cccc(Oc2ccccc2)c1)S(=O)(=O)O` (stereo not shown) [MMV1782215], the “% of growth inhibition, Mean” value is reported as -6.1%.
With `CCCNc1ccc(S(=O)(=O)Nc2cc(C)on2)cc1` [MMV1782216] the “% of growth inhibition, Mean” value was -18.8%.
`Cc1cc(NS(=O)(=O)c2ccc(-c3ccc(F)cc3F)cc2)no1` [MMV1782217] was tested, and the “% of growth inhibition, Mean” value was -29.1%.
In the case of `O=C(NC(=O)N1CCCc2ccccc21)c1ccc(Cl)cc1Cl` [MMV1782218], the “% of growth inhibition, Mean” value is reported as -21.0%.
With `CC(C)CCN1C(=O)C(C2=NS(=O)(=O)c3cc(NS(C)(=O)=O)ccc3N2)=C(O)[C@@H]2[C@H]3CC[C@H](C3)[C@@H]21` [MMV1782220] the “% of growth inhibition, Mean” value was 6.0%.
For `C[C@H](c1cccc2ccccc12)N(C)Cc1ccccc1` [MMV1782221], the “% of growth inhibition, Mean” value was -14.5%.
`CN1c2ccc(Cl)cc2N(c2ccccc2)C(=O)c2cn(Cc3ccc(CN4CCOCC4)cc3)nc21` [MMV1782222] was tested, and the “% of growth inhibition, Mean” value was 3.4%.
In the case of `CN(C)c1[nH]c(=O)ncc1F` [MMV1782223], the “% of growth inhibition, Mean” value is reported as -26.3%.

From article PMC9959553, “Promising Antifungal Molecules against Mucormycosis Agents Identified from Pandemic Response Box®: In Vitro and In Silico Analyses” (Journal of Fungi, 2023)
